Experimental data: ChEMBL document CHEMBL3988442, “University of Dundee, Small-Polar-MMV Screening Library” (2021)

Key:
[1] = microbe, parasite or virus in culture; details: Mycobacterium tuberculosis, 96 h, read-out: pIC50 (converted)
[2] = microbe, parasite or virus in culture; details: Mycobacterium tuberculosis, 72 h, read-out: pIC50 (converted)

Row | SMILES | IC50 [1] [µM] | IC50 [2] [µM]
1 | CC1CCCCN1C(=O)COCc1nc(-c2ccncc2)no1 (configuration not stated) | > 50.1 | > 50.1
2 | CCS(=O)(=O)NC1CCN(c2cc(Br)ccn2)CC1 | > 501 | 146
3 | COCCN1CCC(CNCc2c[nH]nc2C(C)(C)C)CC1 | > 50.1 | 39.9
4 | Cc1cc(-c2noc(C(C)N)n2)ccc1F (configuration not stated) | > 501 | 457
5 | CN(C(=O)c1ccccc1)S(=O)(=O)c1ccccc1 | 303 | 280
6 | CC(C)N(CCS(=O)(=O)c1ccccc1)CC(N)=O | > 501 | 435
7 | COc1ccnc(NCCS(=O)(=O)c2ccccc2)n1 | > 501 | > 501
8 | Cc1cnn(CCNCCCOc2ccc3c(c2)OCO3)c1 | 13.6 | 13.9
9 | Fc1ccccc1OC1CCN(CCn2cc3ccccc3n2)CC1 | 47.9 | > 50.1
10 | CN1CCOC[C@H]1c1nc(-c2cccnc2)c[nH]1 | > 50.1 | > 50.1
11 | CC(C)Cc1ccc(CS(=O)(=O)CCO)cc1 | 83.5 | 353
12 | CC(NC(=O)CSc1nc(=O)[nH]n1C)c1cccs1 (configuration not stated) | 234 | 175
13 | Cc1cnn(CCNCc2ccc3c(c2)OCCO3)c1 | 211 | 127
14 | CN1CCCC(c2cccc(-c3cccc(C(F)(F)F)c3)n2)C1 (configuration not stated) | 3.45 | 2.88
15 | CC(C)c1nnc2n1CCN(C(=O)c1ccc(-n3cnnc3)cc1)C2 | > 50.1 | > 50.1
16 | CN(C)[C@H]1C[C@@H](Cc2cc(-c3ccc(F)cc3)on2)C1(C)C | > 50.1 | > 50.1
17 | Cc1nn(C2CCCC2)c2nc(C(C)(C)CN3CCN(C)CC3)[nH]c12 | > 50.1 | > 50.1
18 | COc1cccc(CN2CCC3(CC2)OCC(C)O3)c1 (configuration not stated) | 244 | 394
19 | O=C(Cc1cn2ccsc2n1)NCC1CCC1 | 179 | 282
20 | Cc1ncc(Cn2cc(F)ccc2=O)s1 | > 501 | > 501
21 | O=C1[C@H]2CN(Cc3ccco3)C[C@H]2CN1c1ccsc1 | 14.2 | 8.77

Row | SMILES | IC50 [1] [µM] | IC50 [2] [µM]
22 | N[C@@H]1CC[C@H](C(=O)NCCOCc2ccccc2)C1 | 267 | 226
23 | CCNC(=O)c1ccn(-c2ccccc2)n1 | 232 | 340
24 | CN1CCOC(C(=O)Nc2ncc(Cl)s2)C1 (configuration not stated) | 296 | 361
25 | COCCN(C)S(=O)(=O)c1cc(F)c(C)cc1F | > 501 | 465
26 | O=C(CCC1CCCC1)N1CCC(c2cc3ncccc3c(O)n2)CC1 | 0.855 | > 50.1
27 | CCCS(=O)(=O)NCC(O)Cc1ccccc1 (configuration not stated) | 197 | 136
28 | CN(C)S(=O)(=O)NC(c1ccccc1)c1ccccc1 | > 501 | 195
29 | Cc1n[nH]cc1CNCC(c1ccsc1)N(C)C (configuration not stated) | > 50.1 | > 50.1
30 | CSCCOC(=O)c1ccn(C(C)C)n1 | 248 | 241
31 | O=C(CSc1cnn[nH]1)OCc1ccccc1 | > 501 | 67.9
32 | Cc1ccc(CN2CCN(C(=O)c3ccc(Br)o3)CC2)cc1 | 37.2 | 30.4
33 | O=C(CNCC1CC1)Nc1ccc(F)cc1 | > 501 | 215
34 | O=C(c1cc(COc2ccc3c(c2)OCO3)[nH]n1)N1CCSCC1 | 33.5 | 31.8
35 | Cc1cnc(N2C(=O)CSC2c2ccc(N(C)C)cc2)s1 (configuration not stated) | 5.45 | 7.14
36 | Cc1cc(Br)oc1C(=O)Nc1ncccc1O | 157 | 322
37 | CN(C)S(=O)(=O)c1ccc(CN2CCC(C(N)=O)CC2)o1 | > 50.1 | > 50.1
38 | CN(Cc1ccsc1)C(=O)CNC(=O)c1ccc(Br)o1 | 164 | 138
39 | CCOc1ncc(C(=O)NCC(C)(O)C(C)C)cc1Cl (configuration not stated) | 141 | 59.9
40 | COc1cccc(Cl)c1CN1CCCNCC1 | 251 | 228
41 | CCCS(=O)(=O)N(C)Cc1ccc(OCC)cn1 | 280 | 148
